Results on 4 compounds are retold here after article PMC8134483 (Scientific Reports, 2021).

Where two headings read alike, the source gives them in different places.

Assay [1] concerns the target T1, hCB1R (Homo sapiens, UniProt P21554).
T1 construct: expressed in transfected cells; host or cells: CHO-K1
Description: biochemical. Type of assay: binding. To be noted: for CB1R [^3H]CP55,940 Emin: bottom of the concentration–response curve, mean ± SEM.

The target of assay [2] is T1, hCB1R. Nature of the assay: cell-based. It is filed as cell-based. The note with it: for EC50: CHO hCB1R, 10 µM FSK, 90 min, value with 95% CI, read-out: CB1R cAMP Inhibition EC50; for Emax: read-out: CB1R cAMP Inhibition Emax.
The target of assay [3] is T2, hCB2R (Homo sapiens, UniProt P34972).
T2 construct: host or cells: CHO-K1 (PathHunter)
T2 sequence (P34972 whole entry): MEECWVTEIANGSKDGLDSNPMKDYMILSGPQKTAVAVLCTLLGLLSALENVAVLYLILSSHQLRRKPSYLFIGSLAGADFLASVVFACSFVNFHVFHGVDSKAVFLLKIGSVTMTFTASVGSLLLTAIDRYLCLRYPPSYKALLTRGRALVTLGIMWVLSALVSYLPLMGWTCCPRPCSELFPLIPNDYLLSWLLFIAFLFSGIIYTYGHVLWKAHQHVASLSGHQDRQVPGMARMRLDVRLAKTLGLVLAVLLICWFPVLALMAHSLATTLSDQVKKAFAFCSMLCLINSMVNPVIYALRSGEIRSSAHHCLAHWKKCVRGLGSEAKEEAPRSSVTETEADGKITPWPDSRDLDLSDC
Description: HitHunter inhibition of FSK-stimulated cAMP, CB2R. Type of assay: cell-based.

In assay [4] the target is T2, hCB2R. Nature of the assay: CB2R bias analysis (operational model, cAMP inhibition vs βarrestin2). Type of assay: cell-based. The note with it: CP55,940 as reference agonist; >0 cAMP bias, <0 βarrestin2 bias. As to the method:
(§1) Estimates of Ki, EC50, Emin, and Emax were determined using non-linear regression with variable slope (four parameters) (GraphPad, Prism, v. 8.0). […] One-way analysis of variance (ANOVA), followed by Tukey’s post-hoc test, was used for statistical analyses (p < 0.05 determined to be significant); and Bartlett’s test was used to confirm homogeneity of variance (GraphPad).

The target of assay [5] is T2, hCB2R. Nature of the assay: [^3H]CP55,940 competition (radioligand displacement) binding to CB2R. The note with it: for CB2R [^3H]CP55,940 Emin: bottom of the concentration–response curve, mean ± SEM.
Assay [6] deals with T2, hCB2R. Nature of the assay: PathHunter βarrestin2 recruitment, CB2R. Type of assay: cell-based. The note with it: for βarrestin2 recruitment to CB2R, activity in words: relative to CP55,940.
In assay [7] the target is T1, hCB1R. Description: cell-based. To be noted: for CB1R versus CB2R selectivity, βarrestin2 recruitment: CB1R vs CB2R; for EC50: CHO hCB1R, 90 min, value with 95% CI, read-out: CB1R βarrestin2 recruitment EC50; for Emax: read-out: CB1R βarrestin2 recruitment Emax; for βarrestin2 recruitment to CB1R, activity in words: relative to CP55940. It is filed as cell-based. (In general: Activated receptors often draw arrestin, which recruitment assays turn into a signal.)

For assay [8], the target named is T1, hCB1R. Nature of the assay: CB1R bias analysis (operational model, cAMP inhibition vs βarrestin2). It is filed as cell-based. To be noted: CP55,940 as reference agonist; >0 cAMP bias, <0 βarrestin2 bias. As to the method:
as §1

T1 sequence (P21554 whole entry): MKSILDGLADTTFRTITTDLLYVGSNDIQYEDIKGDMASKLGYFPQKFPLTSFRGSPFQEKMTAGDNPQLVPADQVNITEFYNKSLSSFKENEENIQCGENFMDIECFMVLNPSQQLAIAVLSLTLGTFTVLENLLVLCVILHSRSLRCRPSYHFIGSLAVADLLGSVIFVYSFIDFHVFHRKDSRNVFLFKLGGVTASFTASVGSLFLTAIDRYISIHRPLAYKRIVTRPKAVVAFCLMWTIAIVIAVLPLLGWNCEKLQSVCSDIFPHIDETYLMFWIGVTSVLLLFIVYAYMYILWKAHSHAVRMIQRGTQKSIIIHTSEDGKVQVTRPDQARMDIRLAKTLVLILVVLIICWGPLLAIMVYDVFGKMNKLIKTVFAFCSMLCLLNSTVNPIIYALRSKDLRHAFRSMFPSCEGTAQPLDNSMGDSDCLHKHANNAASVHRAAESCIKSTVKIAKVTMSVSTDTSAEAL

For orientation: Ki means the equilibrium dissociation constant of an inhibitor or competing ligand from its target. As usually defined, the EC50 is the midpoint of the concentration-response curve. Broadly, the Emax is the size of the effect at its maximum, as opposed to the concentration needed. For `CCC(Cl)CCn1nc(C(=O)NC(C(N)=O)C(C)C)c2ccccc21` (stereo not shown) [3-chloro AB-PINACA], at hCB1R [1], the affinity, expressed as Ki, was 170 nM and the “CB1R [^3H]CP55,940 Emin” value stood at 65 ± 5.1 %. In addition, the “CB1R versus CB2R selectivity, cAMP inhibition potency” value at hCB1R [2] (CB1R vs CB2R) is reported as “more potent at CB1R relative to CB2R”. At hCB1R [2], the EC50 is 0.04 nM and the Emax amounted to 94 ± 2.8%. Further, on hCB2R [3], a half-maximal effect (EC50) was put at 19 nM and the Emax came out at 87 ± 15%. For the same compound, the “CB2R bias between cAMP inhibition and βarrestin2 recruitment, ∆∆LogR (cAMP—βarr2), in words” value on hCB2R [4] was “significant bias toward the recruitment of βarrestin2”. Besides, on hCB2R [5], the Ki was determined as 52 nM and the “CB2R [^3H]CP55,940 Emin” value came out at 84 ± 4.3 %. At hCB2R [6], the response was half-maximal at 8.8 nM (EC50); the Emax came out at 130 ± 4.5%; the “βarrestin2 recruitment to CB2R, activity in words” value (shortened to “βarrestin2 recruitment to CB2R”) is “greater potency and produced supramaximal EMax responses”. Further, on hCB1R [7], the “CB1R versus CB2R selectivity, βarrestin2 recruitment” value is “more potent for CB2R-dependent recruitment of βarrestin2 than CB1R-dependent recruitment of βarrestin2”; the EC50 is 140 nM; the Emax was found to be 340 ± 11%; the “βarrestin2 recruitment to CB1R, activity in words” value (from here on “βarrestin2 recruitment to CB1R”) was “greater potency and produced supramaximal EMax responses”. The “CB1R bias between cAMP inhibition and βarrestin2 recruitment, ∆∆LogR (cAMP—βarr2), in words” value on hCB1R [8] was “did not display a bias”.
As for `O=C(Oc1cccc2cccnc12)c1nn(CCCCCF)c2ccccc12` [5-fluoro NPB-22], at hCB1R [1], affinity was put at a Ki of 47 nM and the “CB1R [^3H]CP55,940 Emin” value was 2.3 ± 7.8%. Further, on hCB1R [2], the EC50 worked out at 53 nM and the Emax came to 96 ± 7%. Moreover, on hCB2R [3], the EC50 is 3.2 nM and the Emax was 110 ± 7.6%. In addition, the “CB2R bias between cAMP inhibition and βarrestin2 recruitment, ∆∆LogR (cAMP—βarr2), in words” value on hCB2R [4] is “did not display a bias”. On hCB2R [5], the Ki came to 4.3 nM and the “CB2R [^3H]CP55,940 Emin” value was determined as 34 ± 8.1 %. Further, on hCB2R [6], a half-maximal effect (EC50) was put at 280 nM; the Emax amounted to 120 ± 3.7%; the “βarrestin2 recruitment to CB2R” value is “not different with regard to potency relative to the reference agonist CP55,940, and produced supramaximal EMax responses”. At hCB1R [7], the EC50 came out at 830 nM; the Emax amounted to 210 ± 12%; the “βarrestin2 recruitment to CB1R” value is “equipotent, but produced supramaximal EMax responses”. For the same compound, the “CB1R bias between cAMP inhibition and βarrestin2 recruitment, ∆∆LogR (cAMP—βarr2), in words” value at hCB1R [8] is recorded as “significant bias toward the recruitment of βarrestin2”.
As for `CCCC(F)Cn1nc(C(=O)NC(C(N)=O)C(C)C)c2ccccc21` (stereo not drawn) [AB-PINACA N-(2-fluoropentyl) isomer], at hCB1R [1], the “Competition of 1.0 nM [^3H]CP55,940 from CB1R, in words” value was “only partially competing”; affinity was put at a Ki of 1.6 nM; the “CB1R [^3H]CP55,940 Emin” value was 76 ± 6.2 %. Besides, on hCB1R [1] (CB1R vs CB2R [^3H]CP55,940 binding), the “CB1R versus CB2R selectivity, receptor affinity” value was “greater affinity at CB1R relative to CB2R”. At hCB1R [2], the EC50 worked out at 7.3 nM and the Emax worked out at 75 ± 7.5%. The “CB1R-dependent inhibition of FSK-stimulated cAMP, activity in words” value at hCB1R [2] (relative to CP55940) is on record as “partial agonist”. Further, at hCB2R [3], it took 10 nM to reach a half-maximal effect (EC50) and the Emax was 91 ± 3.2%. Moreover, the “CB2R bias between cAMP inhibition and βarrestin2 recruitment, ∆∆LogR (cAMP—βarr2), in words” value on hCB2R [4] is “significant bias toward the recruitment of βarrestin2”. Also, at hCB2R [5], the “Affinity for CB2R compared with CP55,940, in words” value is “significantly less affinity”; the “Competition of 1.0 nM [^3H]CP55,940 from CB2R, in words” value (“Competition … from CB2R, in words” for short) was “completely displaced”; the Ki was found to be 270 nM; the “CB2R [^3H]CP55,940 Emin” value worked out at 2.8 ± 8.1 %. Further, the “Competition … from CB2R, in words” value at hCB2R [5] (listed as AB PINACA N-(2-fluoropentyl) isomer) is “fully competed”. Moreover, at hCB2R [6], the EC50 was found to be 9.4 nM; the Emax is 140 ± 12%; the “βarrestin2 recruitment to CB2R” value is “greater potency and produced supramaximal EMax responses”. At hCB1R [7], the “CB1R versus CB2R selectivity, βarrestin2 recruitment” value is given as “more potent for CB2R-dependent recruitment of βarrestin2 than CB1R-dependent recruitment of βarrestin2”; the EC50 was 240 nM; the Emax came out at 204 ± 10%; the “βarrestin2 recruitment to CB1R” value was “greater potency and produced supramaximal EMax responses”. Besides, the “CB1R bias between cAMP inhibition and βarrestin2 recruitment, ∆∆LogR (cAMP—βarr2), in words” value on hCB1R [8] is given as “did not display a bias”.
In the case of `CC(C)C(NC(=O)c1nn(Cc2ccccc2F)c2ccccc12)C(N)=O` (stereo not shown) [ortho-AB-FUBINACA], at hCB1R [1], the affinity corresponds to a Ki of 2.7 nM and the “CB1R [^3H]CP55,940 Emin” value is listed as 16 ± 5.4%. In addition, at hCB1R [2], the EC50 came out at 3.6 nM and the Emax came to 83 ± 8.4%. Moreover, on hCB2R [3], the EC50 was 0.06 nM and the maximum response (Emax) was determined as 110 ± 6.7%. The “CB2R bias between cAMP inhibition and βarrestin2 recruitment, ∆∆LogR (cAMP—βarr2), in words” value on hCB2R [4] is reported as “significant bias toward the inhibition of cAMP”. For the same compound, at hCB2R [5], the “Affinity for CB2R compared with CP55,940, in words” value was “significantly greater affinity”; the “Competition … from CB2R, in words” value is on record as “completely displaced”; the Ki was determined as 0.93 nM; the “CB2R [^3H]CP55,940 Emin” value was determined as 17 ± 1.2%. Besides, on hCB2R [6], the response was half-maximal at 140 nM (EC50); the Emax was determined as 120 ± 3.1%; the “βarrestin2 recruitment to CB2R” value is “not different with regard to potency relative to the reference agonist CP55,940, and produced supramaximal EMax responses”. At hCB1R [7], the “CB1R versus CB2R selectivity, βarrestin2 recruitment” value is listed as “more potent for CB2R-dependent recruitment of βarrestin2 than CB1R-dependent recruitment of βarrestin2”; the EC50 came to 810 nM; the maximal response (Emax) amounted to 280 ± 11%; the “βarrestin2 recruitment to CB1R” value is listed as “equipotent, but produced supramaximal EMax responses”. The “CB1R bias between cAMP inhibition and βarrestin2 recruitment, ∆∆LogR (cAMP—βarr2), in words” value at hCB1R [8] is given as “significant bias toward the recruitment of βarrestin2”.
